Here are results for one compound from patent US20080045504A1, “Benzonitrile Derivatives to Treat Musculoskeletal Frailty” (PFIZER PRODUCTS INC., priority 2004, published 2008).

For this experiment, the target named is T1, recombinant human androgen receptor (hAR) (Homo sapiens, UniProt P10275).
T1 construct: made in house; host or cells: baculovirus/Sf9 insect cells (crude extract)
T1 sequence (P10275 1-920): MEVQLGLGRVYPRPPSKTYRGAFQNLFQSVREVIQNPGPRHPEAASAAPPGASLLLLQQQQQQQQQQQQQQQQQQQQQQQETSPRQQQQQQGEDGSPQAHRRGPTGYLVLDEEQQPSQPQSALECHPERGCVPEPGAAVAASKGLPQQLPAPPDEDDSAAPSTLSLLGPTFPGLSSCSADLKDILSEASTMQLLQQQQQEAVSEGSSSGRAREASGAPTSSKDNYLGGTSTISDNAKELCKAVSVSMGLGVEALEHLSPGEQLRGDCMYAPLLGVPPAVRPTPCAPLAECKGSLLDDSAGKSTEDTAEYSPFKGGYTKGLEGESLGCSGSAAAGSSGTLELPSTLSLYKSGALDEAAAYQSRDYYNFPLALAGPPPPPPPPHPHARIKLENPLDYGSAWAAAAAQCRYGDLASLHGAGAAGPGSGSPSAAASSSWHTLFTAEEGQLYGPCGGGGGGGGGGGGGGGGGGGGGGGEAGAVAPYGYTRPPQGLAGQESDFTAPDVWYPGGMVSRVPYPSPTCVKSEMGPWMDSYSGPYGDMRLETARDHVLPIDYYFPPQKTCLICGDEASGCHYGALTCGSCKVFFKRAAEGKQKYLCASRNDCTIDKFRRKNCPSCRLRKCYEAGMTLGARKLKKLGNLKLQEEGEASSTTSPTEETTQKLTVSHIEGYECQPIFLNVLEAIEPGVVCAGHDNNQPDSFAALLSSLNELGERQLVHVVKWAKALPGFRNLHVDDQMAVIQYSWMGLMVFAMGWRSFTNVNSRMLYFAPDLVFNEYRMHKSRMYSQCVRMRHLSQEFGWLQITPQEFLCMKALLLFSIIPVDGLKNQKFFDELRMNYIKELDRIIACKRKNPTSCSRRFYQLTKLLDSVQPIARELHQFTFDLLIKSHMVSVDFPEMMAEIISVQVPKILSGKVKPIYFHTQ
Description: Human androgen receptor binding analysis (3H-DHT competitive binding). As for the experimental part: The following is a brief description of the assay that determines the affinity of a compound for the recombinant human androgen receptor (hAR). Competitive binding analysis is performed on baculovirus/Sf9 generated hAR extracts in the presence or absence of differing concentrations of drug and a fixed concentration of ^3H-dihydrotestosterone (^3H-DHT) as tracer. This binding assay method is a modification of a protocol previously described (Chang, et. al. J. Steroid Biochem. 20(1):11-17 1984). Briefly, progressively decreasing concentrations of compounds are incubated in the presence of hAR extract (Chang et al. P.N.A.S. Vol. 89, pp. 5546-5950, 1992), hydroxylapatite and 1 nM ^3H-DHT for one hour at 4° C. Subsequently, the binding reactions are washed three times to completely remove excess unbound ^3H-DHT. hAR bound ^3H-DHT levels are determined in the presence of compounds (=competitive binding) and compared to levels bound when no competitor is present (=maximum binding). Compound binding affinity to the hAR is expressed as the concentration of compound at which one half of the maximum binding is inhibited (the IC50).

As a reminder, the IC50 is the concentration needed to halve the response being measured. In the case of `CC[C@H]1CCCCN1c1ccc(C#N)c(C(F)(F)F)c1` [Example 1, 4-(2-(S)-Ethyl-piperidin-1-yl)-2-trifluoromethyl-benzonitrile], the IC50 was 5.21 nM.
